Tests used:
[1] = Toxicity in transplant recipients (BUN, serum creatinine, histopathology); format: in vivo, mice; details: regimens giving 100% allograft survival for 30 days
[2] = system: heart allograft; assay: Cardiac allograft survival (BALB/c hearts into C57BL/6 recipients); format: in vivo, mice; details: oral, 5 mg/kg every day for 15 days
[3] = Hydrolysis of (pro-)drugs in nanobiologics; format: physicochemical; details: 4° C. in PBS
Description: (Pro-)drug recovery and hydrolysis were determined using the following procedure: an aliquot (200 μL) of the particle solution was dried under vacuum, acetonitrile (600 μL) was added and the suspension was sonicated for 20 minutes. The suspension was centrifuged to precipitate any solids and the remaining solution was analyzed using HPLC; except for the malonate derivatives which were analyzed using SFC-MS, and Dimethylmalonate which was analyzed by GC-MS.

Compound	blood urea nitrogen (BUN) and serum creatinine [1]	allograft survival for 30 days [2]	hydrolysis of the (pro-)drug in the nanobiologic over time [3]
CO[C@H]1C[C@@H]2CC[C@@H](C)[C@@](O)(O2)C(=O)C(=O)N2CCCC[C@H]2C(=O)O[C@H]([C@H](C)C[C@@H]2CC[C@@H](O)[C@H](OC)C2)CC(=O)[C@H](C)/C=C(\C)[C@@H](O)[C@@H](OC)C(=O)[C@H](C)C[C@H](C)/C=C/C=C/C=C/1C [Rapamycin, rapamycin]	kidney toxicity parameters show statistical differences between oral rapamycin and mTORi-HDL	100%	
CCCCCCCCCCCCCCCCCC(=O)O[C@@H]1CC[C@@H](C[C@@H](C)[C@@H]2CC(=O)[C@H](C)/C=C(\C)[C@@H](O)[C@@H](OC)C(=O)[C@H](C)C[C@H](C)/C=C/C=C/C=C(\C)[C@@H](OC)C[C@@H]3CC[C@@H](C)[C@@](O)(O3)C(=O)C(=O)N3CCCC[C@H]3C(=O)O2)C[C@H]1OC [Cis-Rapamycin, Rapamycin-C18]			hydrolysis was observed

— patent US20200376146A1, “NANOBIOLOGIC COMPOSITIONS FOR INHIBITING TRAINED IMMUNITY” (ICAHN SCHOOL OF MEDICINE, priority 2017, published 2020)
